Test results reported in patent publication US8853230B2, “Inhibitors of JAK” (Portola Pharmaceuticals, Inc., priority 2009, dated 2014).

Columns and labels:
[1] = tested on: IL4-induced phospho STAT6 formation in Ramos B lymphocytes; test: Inhibition of IL4-induced phospho STAT6 formation in Ramos B lymphocytes (flow cytometry); assay type: cell-based, human; details: Homo sapiens; for inhibition at 0.2 µM: 200 nM compound, read-out: % Inhibition of IL-4 Induced STAT6 Phosphorylation 200 nM; for inhibition at 1 µM: 1 μM compound, read-out: % Inhibition of IL-4 Induced STAT6 Phosphorylation 1 μM
Text: Similar types of assays can be used to assess JAK inhibitory activity and to determine the degree of selectivity of the particular compound as compared to syk. One means of assaying for such inhibition is detection of the effect of the compounds of the present invention on the upregulation of downstream gene products. In the Ramos/IL4 assay, B-cells are stimulated with the cytokine Interleukin-4 (IL-4) leading to the activation of the JAK/Stat pathway through phosphorylation of the JAK family kinases, JAK1 and JAK3, which in turn phosphorylate and activate the transcription factor Stat-6. […] To study the effect of inhibitors (e.g., the 2,4-substituted pyrimindinediamine compounds described herein) on the JAK1 and JAK3, human Ramos B-cells are stimulated with human IL-4. 10′ post-stimulation, cells are subjected to intracellular flow cytometry to measure the extent of STAT-6 phosphorylation. 20 to 24 hours post-stimulation, cells are stained for upregulation of CD23 and analyzed using flow cytometry.
Inhibition of IL4-induced phospho STAT6 formation was measured by pre-incubating 0.5 million Ramos B lymphocytes (ATCC) with 5 μl compound or DMSO vehicle for 1 hour at 37° C./5% CO2. Cells were activated by addition of 1 ng/ml [f]IL4 (R & D Research Systems) for 10 min at 37° C./5% CO2 and then fixed by addition of 1.6% [f]PFA (Electron Microscopy Services). Following a PBS wash step and permaeabilization with 100% methanol, cells were incubated with ALEXA-conjugated anti-phosphoSTAT6 (Y641) antibody (BD 612600). The extent of cell associated-fluorescence was determined by flow cytomentry and data expressed as mean fluorescent intensity. The extent of inhibition of the IL4-induced signal was then calculated.

JAK3 = target: T1, JAK3 (Homo sapiens, UniProt P52333); test: Z'-LYTE kinase assay, JAK3 tyrosine phosphorylation activity; assay type: biochemical
T1 construct: 5 μl of catalytic domain recombinant Kinase enzyme+Tyr peptide substrate (Invitrogen, Calif.); purchased Invitrogen
Method in brief: (§1)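 FRET read-out (ex 400 nm, em 445 and 520 nm) after protease cleavage of non-phosphorylated Tyr6 peptide. Kinase step: catalytic-domain enzyme, peptide, ATP and compound, 1 h at RT, 1% DMSO. IC50 from a 4-parameter logistic fit of percent phosphorylation versus uninhibited control.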

TYK2 = target: T2, TYK2 (Homo sapiens, UniProt P29597); test: Z'-LYTE kinase assay, TYK2 tyrosine phosphorylation activity; assay type: biochemical
T2 construct: 5 μl of catalytic domain recombinant Kinase enzyme+Tyr peptide substrate (Invitrogen, Calif.); purchased Invitrogen
T2 sequence (P29597 897-1176 limits assumed): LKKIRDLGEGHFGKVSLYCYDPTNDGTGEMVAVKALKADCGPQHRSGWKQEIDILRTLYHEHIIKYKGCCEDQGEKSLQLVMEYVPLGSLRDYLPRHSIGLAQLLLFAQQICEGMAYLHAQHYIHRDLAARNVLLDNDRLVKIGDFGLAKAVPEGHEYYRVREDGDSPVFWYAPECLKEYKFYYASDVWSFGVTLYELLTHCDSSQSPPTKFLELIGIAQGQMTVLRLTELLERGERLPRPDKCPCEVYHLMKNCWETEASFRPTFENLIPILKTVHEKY
Method in brief: as §1

JAK2 = target: T3, JAK2 (Homo sapiens, UniProt O60674); test: Z'-LYTE kinase assay, JAK2 tyrosine phosphorylation activity; assay type: biochemical
T3 construct: 5 μl of catalytic domain recombinant Kinase enzyme+Tyr peptide substrate (Invitrogen, Calif.); purchased Invitrogen
Method in brief: as §1

JAK1 = target: T4, JAK1 (Homo sapiens, UniProt P23458); test: Z'-LYTE kinase assay, JAK1 tyrosine phosphorylation activity; assay type: biochemical; details: read-out: JAK 1 IC50
T4 construct: 5 μl of catalytic domain recombinant Kinase enzyme+Tyr peptide substrate (Invitrogen, Calif.); purchased Invitrogen
Method in brief: as §1

T1 sequence (P52333 822-1111 limits assumed): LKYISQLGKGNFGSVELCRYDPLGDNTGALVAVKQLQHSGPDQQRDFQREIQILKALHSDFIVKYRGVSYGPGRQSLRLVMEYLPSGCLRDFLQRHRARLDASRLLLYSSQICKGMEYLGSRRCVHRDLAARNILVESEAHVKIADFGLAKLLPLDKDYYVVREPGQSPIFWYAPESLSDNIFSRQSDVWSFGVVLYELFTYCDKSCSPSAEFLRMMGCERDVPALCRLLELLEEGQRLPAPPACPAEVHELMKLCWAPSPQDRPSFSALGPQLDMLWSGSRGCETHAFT
T4 sequence (P23458 875-1153 limits assumed): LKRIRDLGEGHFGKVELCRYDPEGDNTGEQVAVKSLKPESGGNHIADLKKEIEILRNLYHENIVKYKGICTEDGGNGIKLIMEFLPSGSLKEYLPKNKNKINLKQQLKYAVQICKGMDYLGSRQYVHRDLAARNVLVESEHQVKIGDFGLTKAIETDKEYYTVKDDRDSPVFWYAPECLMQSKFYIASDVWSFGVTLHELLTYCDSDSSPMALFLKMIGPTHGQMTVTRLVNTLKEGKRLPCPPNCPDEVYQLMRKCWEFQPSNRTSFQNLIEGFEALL
T3 sequence (O60674 849-1124 limits assumed): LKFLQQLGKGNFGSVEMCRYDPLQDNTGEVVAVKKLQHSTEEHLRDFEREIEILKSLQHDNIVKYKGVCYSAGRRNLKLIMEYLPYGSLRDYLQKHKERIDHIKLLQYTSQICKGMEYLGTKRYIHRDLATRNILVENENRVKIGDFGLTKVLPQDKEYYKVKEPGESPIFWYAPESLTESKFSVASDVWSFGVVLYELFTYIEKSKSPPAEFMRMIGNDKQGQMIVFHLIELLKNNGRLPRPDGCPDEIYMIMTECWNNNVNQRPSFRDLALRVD

C[C@H]1CCCN1C(=O)Nc1cccc(Nc2ncc(C(N)=O)c(NCc3ccccc3)n2)c1 [Example 139, (S)-4-(benzylamino)-2-(3-(2-methylpyrrolidine-1-carboxamido)phenylamino)pyrimidine-5-carboxamide]
inhibition at 0.2 µM [1]: 25.3%
inhibition at 1 µM [1]: 74.3%
IC50 (JAK3): 1 to 10 nM
IC50 (TYK2): 1 to 10 nM
IC50 (JAK2): 10 to 100 nM
IC50 (JAK1): 10 to 100 nM

COC[C@@H]1CCCN1C(=O)Nc1cccc(Nc2ncc(C(N)=O)c(NCc3ccccc3)n2)c1 [Example 140, (S)-4-(benzylamino)-2-(3-(2-(methoxymethyl)pyrrolidine-1-carboxamido)phenylamino)pyrimidine-5-carboxamide]
inhibition at 0.2 µM [1]: 21.7%
inhibition at 1 µM [1]: 69%
IC50 (JAK3): 1 to 10 nM
IC50 (TYK2): 1 to 10 nM
IC50 (JAK2): 10 to 100 nM
IC50 (JAK1): 10 to 100 nM

NC(=O)c1cnc(Nc2cccc(NC(=O)N3CC=CC3)c2)nc1NCc1ccccc1 [Example 142, 4-(benzylamino)-2-(3-(2,5-dihydro-1H-pyrrole-1-carboxamido)phenylamino)pyrimidine-5-carboxamide]
inhibition at 0.2 µM [1]: 41.3%
inhibition at 1 µM [1]: 79.3%
IC50 (JAK3): 1 to 10 nM
IC50 (TYK2): 1 to 10 nM
IC50 (JAK2): 10 to 100 nM
IC50 (JAK1): 10 to 100 nM

NC(=O)c1cnc(Nc2cccc(NC(=O)N3CC[C@H](O)C3)c2)nc1NCc1ccccc1 [Example 143, (S)-4-(benzylamino)-2-(3-(3-hydroxypyrrolidine-1-carboxamido)phenylamino)pyrimidine-5-carboxamide]
inhibition at 0.2 µM [1]: 44.7%
inhibition at 1 µM [1]: 85.7%
IC50 (JAK3): 1 to 10 nM
IC50 (TYK2): 1 to 10 nM
IC50 (JAK2): 10 to 100 nM
IC50 (JAK1): 10 to 100 nM

C[C@@H]1CCCN1C(=O)Nc1cccc(Nc2ncc(C(N)=O)c(NCc3ccccc3)n2)c1 [Example 146, (R)-4-(benzylamino)-2-(3-(2-methylpyrrolidine-1-carboxamido)phenylamino)pyrimidine-5-carboxamide]
inhibition at 0.2 µM [1]: 40.7%
inhibition at 1 µM [1]: 82%
IC50 (JAK3): 1 to 10 nM
IC50 (TYK2): 1 to 10 nM
IC50 (JAK2): 10 to 100 nM
IC50 (JAK1): 10 to 100 nM

COC[C@H]1CCCN1C(=O)Nc1cccc(Nc2ncc(C(N)=O)c(NCc3ccccc3)n2)c1 [Example 147, (R)-4-(benzylamino)-2-(3-(2-(methoxymethyl)pyrrolidine-1-carboxamido)phenylamino)pyrimidine-5-carboxamide]
inhibition at 0.2 µM [1]: 28.7%
inhibition at 1 µM [1]: 82%
IC50 (JAK3): 1 to 10 nM
IC50 (TYK2): 1 to 10 nM
IC50 (JAK2): 10 to 100 nM
IC50 (JAK1): 10 to 100 nM

COC[C@H]1CCCN1C(=O)Nc1cccc(Nc2ncc(C(N)=O)c(N[C@H](C)c3ccccc3)n2)c1 [Example 149, 2-(3-((R)-2-(methoxymethyl)pyrrolidine-1-carboxamido)phenylamino)-4-((R)-1-phenylethylamino)pyrimidine-5-carboxamide]
inhibition at 0.2 µM [1]: 6.7%
inhibition at 1 µM [1]: 44%
IC50 (JAK3): 1 to 10 nM
IC50 (TYK2): 10 to 100 nM
IC50 (JAK2): 10 to 100 nM
IC50 (JAK1): 100 to 1000 nM

CCNC(=O)Nc1cc(Nc2ncc(C(N)=O)c(NCc3ccccc3)n2)ccc1Cl [Example 153]
inhibition at 0.2 µM [1]: 22.3%
inhibition at 1 µM [1]: 51.7%
IC50 (JAK3): 10 to 100 nM
IC50 (TYK2): 10 to 100 nM
IC50 (JAK2): 100 to 1000 nM
IC50 (JAK1): 100 to 1000 nM

NC(=O)c1cnc(Nc2ccc(Cl)c(NC(=O)NC3CC3)c2)nc1NCc1ccccc1 [Example 154, 4-(benzylamino)-2-(4-chloro-3-(3-cyclopropylureido)phenylamino)pyrimidine-5-carboxamide]
inhibition at 0.2 µM [1]: 11.7%
inhibition at 1 µM [1]: 33.7%
IC50 (JAK3): 10 to 100 nM
IC50 (TYK2): 100 to 1000 nM
IC50 (JAK2): > 1000 nM
IC50 (JAK1): > 1000 nM

CC(=O)Nc1cc(Nc2ncc(C(N)=O)c(NCc3ccccc3)n2)ccc1C [Example 155, 2-(3-acetamido-4-methylphenylamino)-4-(benzylamino)pyrimidine-5-carboxamide]
inhibition at 0.2 µM [1]: 71.7%
inhibition at 1 µM [1]: 88%
IC50 (JAK3): 1 to 10 nM
IC50 (TYK2): 1 to 10 nM
IC50 (JAK2): 10 to 100 nM
IC50 (JAK1): 10 to 100 nM

CC(=O)Nc1cc(Nc2ncc(C(N)=O)c(NCc3ccccc3)n2)ccc1F [Example 156, 2-(3-acetamido-4-fluorophenylamino)-4-(benzylamino)pyrimidine-5-carboxamide]
inhibition at 0.2 µM [1]: 28%
inhibition at 1 µM [1]: 71.3%
IC50 (JAK3): 1 to 10 nM
IC50 (TYK2): 1 to 10 nM
IC50 (JAK2): 10 to 100 nM
IC50 (JAK1): 10 to 100 nM

CNC(=O)Nc1cc(Nc2ncc(C(N)=O)c(NCc3ccccc3)n2)ccc1C [Example 157, 4-(benzylamino)-2-(4-methyl-3-(3-methylureido)phenylamino)pyrimidine-5-carboxamide]
inhibition at 0.2 µM [1]: 23%
inhibition at 1 µM [1]: 31.7%
IC50 (JAK3): 1 to 10 nM
IC50 (TYK2): 1 to 10 nM
IC50 (JAK2): 10 to 100 nM
IC50 (JAK1): 10 to 100 nM

COc1ccc(Nc2ncc(C(N)=O)c(NCc3ccccc3)n2)cc1NC(=O)N1CCCC1 [Example 163, 4-(benzylamino)-2-(4-methoxy-3-(pyrrolidine-1-carboxamido)phenylamino)pyrimidine-5-carboxamide]
inhibition at 0.2 µM [1]: 20.7%
inhibition at 1 µM [1]: 61%
IC50 (JAK3): 1 to 10 nM
IC50 (TYK2): 1 to 10 nM
IC50 (JAK2): 10 to 100 nM
IC50 (JAK1): 10 to 100 nM

CNC(=O)Nc1cc(Nc2ncc(C(N)=O)c(NCc3ccccc3)n2)ccc1OC [Example 164, 4-(benzylamino)-2-(4-methoxy-3-(3-methylureido)phenylamino)pyrimidine-5-carboxamide]
inhibition at 0.2 µM [1]: 34.7%
inhibition at 1 µM [1]: 68.7%
IC50 (JAK3): 1 to 10 nM
IC50 (TYK2): 1 to 10 nM
IC50 (JAK2): 10 to 100 nM
IC50 (JAK1): 10 to 100 nM

CNC(=O)Nc1cc(Nc2ncc(C(N)=O)c(NCc3cccc(Cl)c3)n2)ccc1Cl [Example 165, 2-(4-chloro-3-(3-methylureido)phenylamino)-4-(3-chlorobenzylamino)pyrimidine-5-carboxamide]
inhibition at 0.2 µM [1]: 57.3%
inhibition at 1 µM [1]: 89.7%
IC50 (JAK3): 10 to 100 nM
IC50 (TYK2): > 1000 nM
IC50 (JAK2): 100 to 1000 nM
IC50 (JAK1): > 1000 nM

NC(=O)c1cnc(Nc2cccc(NC(=O)N3CCCC3)c2)nc1NCc1ccccc1F [Example 168, 4-(2-fluorobenzylamino)-2-(3-(pyrrolidine-1-carboxamido)phenylamino)pyrimidine-5-carboxamide]
inhibition at 0.2 µM [1]: 54%
inhibition at 1 µM [1]: 92%
IC50 (JAK3): 1 to 10 nM
IC50 (TYK2): 1 to 10 nM
IC50 (JAK2): 10 to 100 nM
IC50 (JAK1): 10 to 100 nM

CNC(=O)Nc1cc(Nc2ncc(C(N)=O)c(NCc3ccccc3F)n2)ccc1Cl [Example 169, 2-(4-chloro-3-(3-methylureido)phenylamino)-4-(2-fluorobenzylamino)pyrimidine-5-carboxamide]
inhibition at 0.2 µM [1]: 3.3%
inhibition at 1 µM [1]: 16.7%
IC50 (JAK3): 1 to 10 nM
IC50 (TYK2): 10 to 100 nM
IC50 (JAK2): 100 to 1000 nM
IC50 (JAK1): 100 to 1000 nM

NC(=O)c1cnc(Nc2ccc(Cl)c(NC(=O)N3CCCC3)c2)nc1NCc1ccccc1F [Example 170, 2-(4-chloro-3-(pyrrolidine-1-carboxamido)phenylamino)-4-(2-fluorobenzylamino)pyrimidine-5-carboxamide]
inhibition at 0.2 µM [1]: 5.7%
inhibition at 1 µM [1]: 53.7%
IC50 (JAK3): 1 to 10 nM
IC50 (TYK2): 10 to 100 nM
IC50 (JAK2): > 1000 nM
IC50 (JAK1): > 1000 nM

CC(=O)Nc1ccc(F)c(Nc2ncc(C(N)=O)c(NCc3ccccc3)n2)c1 [Example 171, 2-(5-acetamido-2-fluorophenylamino)-4-(benzylamino)pyrimidine-5-carboxamide]
inhibition at 0.2 µM [1]: 7.3%
inhibition at 1 µM [1]: 15.3%
IC50 (JAK3): 10 to 100 nM
IC50 (TYK2): 100 to 1000 nM
IC50 (JAK2): 100 to 1000 nM
IC50 (JAK1): 100 to 1000 nM

COCC(=O)Nc1ccc(F)c(Nc2ncc(C(N)=O)c(NCc3ccccc3)n2)c1 [Example 172, 4-(benzylamino)-2-(2-fluoro-5-(2-methoxyacetamido)phenylamino)pyrimidine-5-carboxamide]
inhibition at 0.2 µM [1]: 11.3%
inhibition at 1 µM [1]: 33%
IC50 (JAK3): 10 to 100 nM
IC50 (TYK2): 100 to 1000 nM
IC50 (JAK2): 100 to 1000 nM
IC50 (JAK1): 100 to 1000 nM
